Laboratory results taken from US20250352555A1, “METHOD OF INCREASING IMMUNE CELL ACTIVATION AND/OR TREATING CANCER USING DIBENZOXAZEPINONES” (VASCULAR THERAPEUTICS PTY LTD, priority 2022, published 2025).
Values joined by “and” are separate entries in the source; they are usually repeats but may differ in a detail not shown here. Identical values can stand only once. Like-named read-outs stand apart in the source and are kept apart here.

Legend:
[1] = Systemic pharmacokinetics after oral (PO) and intraperitoneal (IP) administration; format: in vivo; settings: male, CD-1, mouse, plasma, 30 mg/kg, male CD-1 mice; for bioavailability: PO, read-out: relative bioavailability
Method: Systemic pharmacokinetics after oral (PO) and intraperitoneal (IP) administration. Male CD-1 mice were injected with BT2 in Formulation 1, Formulation 2 or Formulation 3 (Table 4) and blood was collected after 0.083, 0.25, 0.5, 1, 2, 4, 8 and 24 h. BT2 was given PO or IP injection.
Approximately 110 μl blood samples were collected (n=3/time point, 3 mice/group) into tubes with EDTA-K2 anticoagulant. All blood samples were put on wet ice prior to centrifuging (6000 g, 4° C. for 5 min) to obtain plasma, which were stored at −70° C. or dry ice until analysis.
Plasma samples were analysed by LC-MS/MS (SCIEX ExionLC)-MS/MS (Triple Quad 6500+ With Analyst 1.7.1 AB Sciex). HPLC was performed using a Waters Acquity UPLC HSS T3 1.8 μm, 2.1×50 mm column with Mobile Phase A: H2O-0.025% FA+1 mM NH4OAc and Mobile Phase B: MeOH-0.025% FA+1 mM NH4OAc and injection volume 3 μl.
LC-MS/MS detection was performed for BT2 in plasma of mice given BT2 either by oral gavage (PO) or intraperitoneal (IP) injection. Plasma samples were processed (protein precipitation method used) and injected into LC-MS/MS (SCIEX ExionLC coupled with Triple Quad 6500+).

PD-1 = experiment: Flow cytometry with anti-PD-1 antibodies, Jurkat T cells; format: cell-based, human; settings: for inhibition of PD-1 levels: time course (FIG. 17C)
Method: Flow cytometry with anti-PD-1 antibodies. Jurkat T cells were grown in 6 well plates containing RPMI 1640 and 10% FBS. After 24 h, the cells were treated with various concentrations of BT2 or BT3 for 48 h. Alternatively, the cells were incubated with 3 μM BT2 for various times. After treatment, the cells were washed with PBS, and centrifuged at 300×g for 5 min, and resuspended at 5×10^6 cells/ml. The cells were then incubated with BV421 conjugated mouse anti-human CD279 (PD-1) (BD, cat. no. 562516) or BV421 conjugated mouse IgG1 (BD, cat. no. 562438) for 45 min at 22° C. Cells were then washed twice with 1 ml of Stain Buffer, centrifuged and pellets were resuspended in 0.5 ml Stain Buffer. Stained cell suspensions were analyzed by flow cytometry using a BD FACSCanto (II).
Jurkat T cells express PD-1 (Yi et al., 2023) and are widely used as model human T cells (e.g., Repas et al., 2022). […] BT2's effects were not only dose-dependent but time-dependent. BT2 (3 μM) inhibited PD-1 levels by 50% after 24 h and by 80% after 48 h (FIG. 17C).

total ERK = experiment: Immunohistochemistry of B16F10 tumors (Day 17), total ERK; format: in vivo, mouse; settings: B16F10 tumors Day 17, 200 mg/kg i.p.
Text: Immunohistochemical staining and analyses. Rabbit monoclonal anti-CD3 (cat. no. ab16669; mouse, rat and human reactive), rabbit monoclonal anti-PD-1 (cat. no. ab214421), rabbit monoclonal anti-CD68 (cat. no. ab125212) antibodies were obtained from Abcam, rabbit monoclonal anti-phospho-ERK (Thr^202/Tyr^204) (cat. no. CST4370), rabbit monoclonal total ERK (cat. no. CST4695), antibodies were obtained from Cell Signaling Technology. Rabbit polyclonal anti-PD-L1 (cat. no. PA5-20343) antibody was obtained from ThermoFisher.
Formalin fixed, paraffin embedded sections were prepared from tumors. Heat-induced epitope retrieval was applied to all deparaffinized sections (4 μm sections on Superfrost slides) with citrate buffer, pH 6.0 for 5 min at 110° C. […] Integrated optical density (IOD) or area of positive staining (red chromagen) was assessed using Image-Pro Plus software (Cybernetics, Bethesda, MD, USA). Positive staining was the average of quantitation in 4-8 fields of view under 20× or 40× objectives.
To assess the effect of BT2 in the same model, C57BL/6J mice bearing s.c. B16F10 tumors were administered with BT2 or vehicle (200 mg/kg or 20 ml/kg, respectively, i.p.) once a day on a 5 days-on/2 days-off schedule. […] Tumor size on Day 17 measured using callipers (FIG. 10A) correlated with isolated weighed tumors (FIG. 10B).

AUC(0-t) ([1]; ip, Formulation 1 (G2)): 1440 ng·h/mL and 4.41 µM·h
Cmax ([1]; ip, Formulation 1 (G2)): 1070 ng/mL and 3.29 µM
Tmax ([1]; ip, Formulation 1 (G2)): 15 min
half-life ([1]; ip, Formulation 1 (G2)): 523 min
AUC(0-t) ([1]; ip, Formulation 3 (G6)): 1180 ng·h/mL and 3.62 µM·h
Cmax ([1]; ip, Formulation 3 (G6)): 2.59 µM and 846 ng/mL
Tmax ([1]; ip, Formulation 3 (G6)): 30 min
half-life ([1]; ip, Formulation 3 (G6)): 505 min
bioavailability ([1]; po, Formulation 1 (G1)): 13.1%
AUC(0-t) ([1]; po, Formulation 1 (G1)): 189 ng·h/mL and 0.579 µM·h
Cmax ([1]; po, Formulation 1 (G1)): 177 nM and 57.9 ng/mL
Tmax ([1]; po, Formulation 1 (G1)): 15 min
bioavailability ([1]; po, Formulation 3 (G5)): 28.8%
AUC(0-t) ([1]; po, Formulation 3 (G5)): 340 ng·h/mL and 1.04 µM·h
Cmax ([1]; po, Formulation 3 (G5)): 53.7 ng/mL and 165 nM
Tmax ([1]; po, Formulation 3 (G5)): 60 min
Compound: CCOC(=O)Nc1ccc2c(c1)C(=O)N(CC)c1ccccc1O2 [BT2, (10-ethyl-11-oxo-10,11-dihydro-dibenzo[b,f][1,4]oxazepin-2-yl)-carbamic acid ethyl ester]
reduction of PD-1 expression (PD-1; 0.1 μM, 48 h (FIG. 17A)): 50%
inhibition of PD-1 levels (PD-1; 3 μM, 24 h): 50%
reduction of PD-1 expression (PD-1; 3 μM, 48 h, dose response (FIG. 17A)): 80%
inhibition of PD-1 levels (PD-1; 3 μM, 48 h): 80%
total ERK levels in tumors (IHC) (total ERK): without affecting total ERK levels
